According to PubChem BioAssay (NCI):
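Results reflect a 48-hour exposure of cells in 96-well plates to compound at five concentrations. The concentration for full growth arrest is given as TGI.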

Experiments:
Experiment in all cases: NCI anticancer screen, dose series, 48 h
PC-3 prostate = system: PC-3 prostate
HL-60(TB) leukemia = system: HL-60(TB) leukemia
HS 578T breast = system: HS 578T breast
OVCAR-4 ovarian = system: OVCAR-4 ovarian
OVCAR-5 ovarian = system: OVCAR-5 ovarian
NCI/ADR-RES ovarian = system: NCI/ADR-RES ovarian
TK-10 renal = system: TK-10 renal
CAKI-1 renal = system: CAKI-1 renal
MCF7 breast = system: MCF7 breast
DU-145 prostate = system: DU-145 prostate
MOLT-4 leukemia = system: MOLT-4 leukemia
NCI-H522 lung = system: NCI-H522 lung
MALME-3M melanoma = system: MALME-3M melanoma
RPMI-8226 leukemia = system: RPMI-8226 leukemia
HOP-62 NSCLC = system: HOP-62 NSCLC
SN12C renal = system: SN12C renal
KM12 colon = system: KM12 colon
HT29 colon = system: HT29 colon
SNB-75 CNS = system: SNB-75 CNS
SK-MEL-2 melanoma = system: SK-MEL-2 melanoma
LOX IMVI melanoma = system: LOX IMVI melanoma
A498 renal = system: A498 renal
SR leukemia = system: SR leukemia
RXF 393 renal = system: RXF 393 renal
T-47D breast = system: T-47D breast
CCRF-CEM leukemia = system: CCRF-CEM leukemia
UACC-62 melanoma = system: UACC-62 melanoma
ACHN renal = system: ACHN renal
SF-268 CNS = system: SF-268 CNS
HCT-15 colon = system: HCT-15 colon
COLO 205 colon = system: COLO 205 colon
MDA-N = system: MDA-N
SK-OV-3 ovarian = system: SK-OV-3 ovarian
OVCAR-8 ovarian = system: OVCAR-8 ovarian
NCI-H226 lung = system: NCI-H226 lung
SF-295 CNS = system: SF-295 CNS
SK-MEL-28 melanoma = system: SK-MEL-28 melanoma
NCI-H460 lung = system: NCI-H460 lung
MDA-MB-435 = system: MDA-MB-435
U251 CNS = system: U251 CNS
EKVX NSCLC = system: EKVX NSCLC
UO-31 renal = system: UO-31 renal
K-562 leukemia = system: K-562 leukemia
HOP-92 NSCLC = system: HOP-92 NSCLC
IGROV1 ovarian = system: IGROV1 ovarian
M14 melanoma = system: M14 melanoma
SK-MEL-5 melanoma = system: SK-MEL-5 melanoma
HCC-2998 colon = system: HCC-2998 colon
UACC-257 melanoma = system: UACC-257 melanoma
NCI-H23 lung = system: NCI-H23 lung
SNB-19 CNS = system: SNB-19 CNS
MDA-MB-231 breast = system: MDA-MB-231 breast
A549 NSCLC = system: A549 NSCLC
786-0 renal = system: 786-0 renal
HCT-116 colon = system: HCT-116 colon
OVCAR-3 ovarian = system: OVCAR-3 ovarian
SF-539 CNS = system: SF-539 CNS
BT-549 breast = system: BT-549 breast

In the case of `COC(=O)[C@H]1[C@H](OC(=O)[C@@H](OC)c2ccccc2)ON2CC[C@@H](OC(=O)c3ccccc3)[C@H]12`, the TGI (PC-3 prostate) is reported as > 100 µM, the TGI (HL-60(TB) leukemia) is reported as > 100 µM and the TGI (HS 578T breast) is reported as > 100 µM. For the same compound, the TGI (OVCAR-4 ovarian) was > 100 µM, the TGI (OVCAR-5 ovarian) was > 100 µM and the TGI (NCI/ADR-RES ovarian) was > 100 µM. For the same compound, the TGI (TK-10 renal) was > 100 µM, the TGI (CAKI-1 renal) was > 100 µM and the TGI (MCF7 breast) was 22 µM. For the same compound, the TGI (DU-145 prostate) was > 100 µM, the TGI (MOLT-4 leukemia) was > 100 µM and the TGI (NCI-H522 lung) was 7.59 µM. The TGI (MALME-3M melanoma) was > 100 µM, the TGI (RPMI-8226 leukemia) was > 100 µM and the TGI (HOP-62 NSCLC) was > 100 µM. For the same compound, the TGI (SN12C renal) was > 100 µM, the TGI (KM12 colon) was > 100 µM and the TGI (HT29 colon) was > 100 µM. For the same compound, the TGI (SNB-75 CNS) was 65.1 µM, the TGI (SK-MEL-2 melanoma) was > 100 µM and the TGI (LOX IMVI melanoma) was > 100 µM. For the same compound, the TGI (A498 renal) was 23.1 µM, the TGI (SR leukemia) was > 100 µM and the TGI (RXF 393 renal) was > 100 µM. The TGI (T-47D breast) was > 100 µM, the TGI (CCRF-CEM leukemia) was > 100 µM and the TGI (UACC-62 melanoma) was 28 µM. For the same compound, the TGI (ACHN renal) was 25.6 µM, the TGI (SF-268 CNS) was > 100 µM and the TGI (HCT-15 colon) was > 100 µM. For the same compound, the TGI (COLO 205 colon) was > 100 µM, the TGI (MDA-N) was > 100 µM and the TGI (SK-OV-3 ovarian) was > 100 µM. For the same compound, the TGI (OVCAR-8 ovarian) was > 100 µM, the TGI (NCI-H226 lung) was > 100 µM and the TGI (SF-295 CNS) was > 100 µM. For the same compound, the TGI (SK-MEL-28 melanoma) was > 100 µM, the TGI (NCI-H460 lung) was > 100 µM and the TGI (MDA-MB-435) was > 100 µM. The TGI (U251 CNS) was > 100 µM, the TGI (EKVX NSCLC) was > 100 µM and the TGI (UO-31 renal) was > 100 µM. The TGI (K-562 leukemia) was > 100 µM, the TGI (HOP-92 NSCLC) was 66 µM and the TGI (IGROV1 ovarian) was > 100 µM. The TGI (M14 melanoma) was > 100 µM, the TGI (SK-MEL-5 melanoma) was > 100 µM and the TGI (HCC-2998 colon) was > 100 µM. The TGI (UACC-257 melanoma) was > 100 µM, the TGI (NCI-H23 lung) was > 100 µM and the TGI (SNB-19 CNS) was > 100 µM. The TGI (MDA-MB-231 breast) was > 100 µM, the TGI (A549 NSCLC) was > 100 µM and the TGI (786-0 renal) was > 100 µM. The TGI (HCT-116 colon) was > 100 µM.
In the case of `O=[N+]([O-])c1ccc2nc(/C=C(\O)c3ccccc3)c(/C=C(\O)c3ccc(Cl)cc3)nc2c1`, the TGI (PC-3 prostate) is reported as > 100 µM, the TGI (OVCAR-3 ovarian) is reported as > 100 µM and the TGI (SF-539 CNS) is reported as > 100 µM. For the same compound, the TGI (OVCAR-4 ovarian) was > 100 µM, the TGI (OVCAR-5 ovarian) was > 100 µM and the TGI (NCI/ADR-RES ovarian) was > 100 µM. The TGI (TK-10 renal) was > 100 µM, the TGI (CAKI-1 renal) was > 100 µM and the TGI (MCF7 breast) was > 100 µM. The TGI (DU-145 prostate) was > 100 µM, the TGI (MOLT-4 leukemia) was > 100 µM and the TGI (NCI-H522 lung) was 79.7 µM. The TGI (MALME-3M melanoma) was > 100 µM, the TGI (HOP-62 NSCLC) was 88.2 µM and the TGI (SN12C renal) was > 100 µM. For the same compound, the TGI (KM12 colon) was > 100 µM, the TGI (HT29 colon) was > 100 µM and the TGI (SNB-75 CNS) was 64.9 µM. For the same compound, the TGI (SK-MEL-2 melanoma) was > 100 µM, the TGI (A498 renal) was > 100 µM and the TGI (SR leukemia) was > 100 µM. For the same compound, the TGI (RXF 393 renal) was 83.9 µM, the TGI (T-47D breast) was > 100 µM and the TGI (CCRF-CEM leukemia) was > 100 µM. The TGI (UACC-62 melanoma) was > 100 µM, the TGI (ACHN renal) was > 100 µM and the TGI (SF-268 CNS) was > 100 µM. For the same compound, the TGI (BT-549 breast) was > 100 µM, the TGI (HCT-15 colon) was > 100 µM and the TGI (COLO 205 colon) was > 100 µM. The TGI (MDA-N) was > 100 µM, the TGI (SK-OV-3 ovarian) was > 100 µM and the TGI (OVCAR-8 ovarian) was > 100 µM. The TGI (NCI-H226 lung) was > 100 µM, the TGI (SF-295 CNS) was > 100 µM and the TGI (NCI-H460 lung) was > 100 µM. The TGI (MDA-MB-435) was > 100 µM, the TGI (U251 CNS) was > 100 µM and the TGI (EKVX NSCLC) was > 100 µM. For the same compound, the TGI (UO-31 renal) was > 100 µM, the TGI (K-562 leukemia) was > 100 µM and the TGI (IGROV1 ovarian) was > 100 µM. The TGI (M14 melanoma) was > 100 µM, the TGI (SK-MEL-5 melanoma) was > 100 µM and the TGI (HCC-2998 colon) was > 100 µM. For the same compound, the TGI (UACC-257 melanoma) was > 100 µM, the TGI (NCI-H23 lung) was > 100 µM and the TGI (SNB-19 CNS) was > 100 µM. For the same compound, the TGI (MDA-MB-231 breast) was > 100 µM, the TGI (A549 NSCLC) was > 100 µM and the TGI (786-0 renal) was > 100 µM. For the same compound, the TGI (HCT-116 colon) was > 100 µM.
